# Experimental data taken from patent US10206921B2, “Methods and compositions for treating a subject for central nervous system (CNS) injury” (THE REGENTS OF THE UNIVERSITY OF CALIFORNIA, priority 2009, dated 2019).
# “Also recorded” adds a separate entry of the source.
# Key:
# [1] = target: T1, GABA transporters (GATs): GAT-1, GAT-3/4 (Mus musculus, UniProt P31648); experiment: Whole-cell patch-clamp of tonic inhibition (Itonic) in brain slices after GAT blockade; type: cell-based; conditions: NO-711 10 μM
# T1 construct: Whole-cell patch-clamp recordings were made from post-stroke brain slices; from tissue; host or cells: brain slices, peri-infarct motor cortex, recordings from layer 2/3 pyramidal neurons
# From the text: (§1) Whole-cell patch-clamp recordings were made from post-stroke brain slices, within 200 μm of infarct (top left), from layer-2/3 (top right) pyramidal neurons (bottom panels) (FIG. 1A). Cells were voltage-clamped at +10 mV. […] FIGS. 1C and D show representative traces showing the tonic inhibitory currents in control and peri-infarct neurons, respectively.
# (§2) Itonic remained elevated from 3- to 14-days post-stroke.
# (§3) In post-stroke neurons, co-application only produced an effect (110.7±32.0%, n=5) similar to GAT-1 blockade alone (P<0.68; FIG. 2A), indicating a dysfunction in GAT-3/4 after stroke.
# GABAARs = experiment: GABAAR saturation test: GABA raised in ACSF after blocking both GATs; type: cell-based, mouse; conditions: GABA +10 μM in ACSF after 10 μM NO-711+40 μM SNAP-5114; control slices; n=3
# From the text: Whole-cell patch-clamp recordings were made from post-stroke brain slices, within 200 μm of infarct (top left), from layer-2/3 (top right) pyramidal neurons (bottom panels) (FIG. 1A). Cells were voltage-clamped at +10 mV.
# mice after stroke [2] = experiment: Behavioral/functional recovery after stroke (grid-walking and cylinder tasks together); type: in vivo, mouse
# Protocol: The GABAaα5 inverse agonist L655,708 was administered through subcutaneously implanted osmotic minipumps. Mice were tested fore- and hindlimb function before, and then at one, two, four and six weeks after stroke.
# FIGS. 9A-9C illustrate behavioral recovery after stroke in young and aged animals with L655,708. […] Functional recovery was assessed behaviorally on both the gridwalking task for forelimb footfaults (FIG. 9A) and hindlimb footfaults (FIG. 9B), and on the cylinder task for forelimb asymmetry (FIG. 9C). […] On average the normal gain of function in the aged stroke+vehicle treated animals is less than that of the young stroke+vehicle treated animals. In addition, the aged stroke+L655,708 animals show slightly less improvement compared to young stroke+L655,708 animals. For instance, on the cylinder task young stroke+L655,708 animals show a 15-18% gain of function post-stroke (7 to 42-days), compared with a 13-16% gain of function post-stroke in the aged. Data is shown as mean±s.e.m. for n=8 per group for L655,708 treatment for both young and aged animals, ***=P≤0.001 for stroke+vehicle vs Sham; +=P≤0.05, ++=P≤0.001 aged stroke+L655,708 vs aged stroke+vehicle, ##=P≤0.01, #=P≤0.001 young stroke+L655,708 vs young stroke+vehicle.
# Functional recovery was assessed behaviorally on both the gridwalking task for forelimb footfaults (FIG. 10A), hindlimb footfaults (FIG. 10B), and on the cylinder task for forelimb asymmetry (FIG. 10C). Data are shown as mean±s.e.m. for n=8 per group, ***=P≤0.001 for stroke+vehicle vs. Sham; ##=P≤0.01, #=P≤0.001 vs. stroke+vehicle.
# Two different durations of treatment were used (2 weeks and 6 weeks after stroke. Because stroke is a disease of aging, and the clinical target of stroke is most commonly aged patients, L655,708 was tested in aged animals after stroke. At the end of behavioral testing (6 weeks after stroke) mice received mapping of the pattern of cortical connections in the motor system in peri-infarct cortex (Overman J J, Kalaria S, Overman B, Willis D, Twiss J, Wanner I B, Li S, Carmichael S T (2008) Post-stroke blockade of ephrinA5 increases axonal sprouting in the mouse somatosensory cortex. Soc Neurosci. Abst.). Axonal sprouting in this pen-infarct cortex is closely associated with functional recovery in stroke (Carmichael, '06). Therapies directed toward neural repair after stroke promote the formation of new connections in peri-infarct cortex (Overman et al., '08).
# To define the total role of GABAA α5 and δ receptors in functional recovery after stroke, behavioral testing was performed on Gabra5^−/− and Gabrd^−/− mice (FIGS. 8A-8C). For both α5 and δ knockouts, the same experimental approach was utilized. Mice were tested for e- and hindlimb function before stroke. […]
# α5GABAA receptor = target: T2, α5GABAA receptor (Mus musculus, UniProt P22723+Q8BHJ7); experiment: Whole-cell patch-clamp of tonic inhibition (Itonic) in brain slices with L655,708; type: cell-based
# T2 construct: Whole-cell patch-clamp recordings were made from post-stroke brain slices; from tissue; host or cells: brain slices, peri-infarct motor cortex, layer 2/3 pyramidal neurons
# T2 sequence (Q8BHJ7 32-463 limits assumed): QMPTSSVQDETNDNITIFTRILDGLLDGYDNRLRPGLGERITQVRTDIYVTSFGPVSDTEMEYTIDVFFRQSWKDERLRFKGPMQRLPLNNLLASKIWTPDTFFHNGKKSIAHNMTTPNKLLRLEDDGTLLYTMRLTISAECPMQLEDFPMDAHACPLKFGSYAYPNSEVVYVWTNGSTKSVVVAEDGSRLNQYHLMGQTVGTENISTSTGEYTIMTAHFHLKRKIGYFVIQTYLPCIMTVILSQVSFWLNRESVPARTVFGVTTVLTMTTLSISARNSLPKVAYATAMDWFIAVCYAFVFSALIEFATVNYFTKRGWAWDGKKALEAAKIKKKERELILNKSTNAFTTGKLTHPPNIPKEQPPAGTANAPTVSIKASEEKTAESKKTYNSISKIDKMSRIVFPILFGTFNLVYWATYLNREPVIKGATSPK
# T2 sequence (P22723 39-474): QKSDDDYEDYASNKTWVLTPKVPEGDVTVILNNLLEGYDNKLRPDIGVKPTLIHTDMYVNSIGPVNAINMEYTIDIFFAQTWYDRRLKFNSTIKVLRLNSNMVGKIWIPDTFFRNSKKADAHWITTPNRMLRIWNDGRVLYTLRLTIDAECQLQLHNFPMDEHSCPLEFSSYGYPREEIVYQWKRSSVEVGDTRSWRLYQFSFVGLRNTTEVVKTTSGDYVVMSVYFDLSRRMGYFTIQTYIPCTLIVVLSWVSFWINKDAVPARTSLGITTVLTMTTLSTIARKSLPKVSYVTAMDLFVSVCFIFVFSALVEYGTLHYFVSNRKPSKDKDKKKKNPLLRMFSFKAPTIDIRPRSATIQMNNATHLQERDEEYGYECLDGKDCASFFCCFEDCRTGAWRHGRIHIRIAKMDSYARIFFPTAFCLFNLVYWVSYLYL
# T2 sequence (P63080 26-473 partner): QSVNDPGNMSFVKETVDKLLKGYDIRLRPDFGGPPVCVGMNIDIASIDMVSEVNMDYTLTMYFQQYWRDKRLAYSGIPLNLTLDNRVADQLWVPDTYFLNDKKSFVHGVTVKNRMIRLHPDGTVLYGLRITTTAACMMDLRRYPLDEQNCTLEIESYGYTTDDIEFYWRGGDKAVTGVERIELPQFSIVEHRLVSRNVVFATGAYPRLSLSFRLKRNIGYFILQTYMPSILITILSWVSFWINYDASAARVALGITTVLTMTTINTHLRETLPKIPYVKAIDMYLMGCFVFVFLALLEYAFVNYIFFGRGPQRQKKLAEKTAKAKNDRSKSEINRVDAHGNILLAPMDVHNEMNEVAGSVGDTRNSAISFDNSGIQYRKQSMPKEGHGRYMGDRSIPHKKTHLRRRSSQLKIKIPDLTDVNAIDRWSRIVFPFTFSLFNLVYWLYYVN
# From the text: as §1, §2, §3
# mice after stroke [3] = experiment: Grid-walking task after stroke in forelimb motor cortex; type: in vivo, mouse; conditions: subcutaneous osmotic minipump from 3 days after stroke
# From the text: Stroke completely destroys the tissue in at the center of the stroke (the core) and partially damages the tissue adjacent to the infarct (Katsman D, Spinelli K, Zhang J, and Carmichael S T (2003) Tissue microenvironments within functional cortical subdivisions adjacent to focal stroke. J Cereb Blood Flow Met 23:997-1009; Carmichael S T, Archibeque I, Luke L, Nolan T, Momiy J, Li S. (2005) Growth-Associated Gene Expression after Stroke: Evidence for a growth-promoting region in peri-infarct cortex. Expt Neurol. 193:291-311), i.e., the peri-infarct region. Studies indicate that this peri-infarct region is disabled through partial damage to neuronal circuits, as described above. To model this process experimentally, a stroke model was used that produces complete damage to a part of the brain that controls forelimb use in a mouse, the forelimb motor cortex (FIGS. 5A-5B). […] The stroke destroys part of the forelimb motor cortex. The vertical line indicates site of tissue sections in the middle panel. […] The stroke damage is restricted to the cortex, with partial damage in adjacent white mater and surrounding motor areas. […] Measures of fore- and hindlimb behaviors in this model of stroke thus provide a readout of the function of partially damaged brain areas near the stroke core. […]
# mice after stroke [4] = experiment: Cylinder task (spontaneous forelimb use when rearing) after stroke; type: in vivo, mouse; conditions: for gain of function post-stroke on the cylinder task: 7 to 42 days post-stroke
# From the text: Stroke completely destroys the tissue in at the center of the stroke (the core) and partially damages the tissue adjacent to the infarct (Katsman D, Spinelli K, Zhang J, and Carmichael S T (2003) Tissue microenvironments within functional cortical subdivisions adjacent to focal stroke. J Cereb Blood Flow Met 23:997-1009; Carmichael S T, Archibeque I, Luke L, Nolan T, Momiy J, Li S. (2005) Growth-Associated Gene Expression after Stroke: Evidence for a growth-promoting region in peri-infarct cortex. Expt Neurol. 193:291-311), i.e., the peri-infarct region. Studies indicate that this peri-infarct region is disabled through partial damage to neuronal circuits, as described above. To model this process experimentally, a stroke model was used that produces complete damage to a part of the brain that controls forelimb use in a mouse, the forelimb motor cortex (FIGS. 5A-5B). […] The stroke destroys part of the forelimb motor cortex. The vertical line indicates site of tissue sections in the middle panel. […] The stroke damage is restricted to the cortex, with partial damage in adjacent white mater and surrounding motor areas. This damage is seen as increased staining for GFAP (reactive astrocytes, arrows) and increased cellularity in Nissl stains (arrows). This stroke knocks out part of the forelimb motor cortex and causes partial damage to the rest of forelimb cortex and to hindlimb motor cortex. This disables fore- and hindlimb control and produces weakness in using these limbs for walking and for exploratory forelimb behaviors, (such as using the forelimb when rearing onto objects, FIGS. 6A-6C). Measures of fore- and hindlimb behaviors in this model of stroke thus provide a readout of the function of partially damaged brain areas near the stroke core.
# Treatments that must be administered very early in the clinical course of stroke, such as tPA, are difficult to deliver because most patients are not in the hospital and so rapid emergency response and laboratory screening systems must be developed. […]
structure (smiles),measurement,setting,value
O=C(O)C1=CCCN(CCON=C(c2ccccc2)c2ccccc2)C1 [NO-711],% Itonic increase after GAT blockade,"[1]; control neurons, n=6",34.3±11.4%
same,% Itonic increase after GAT blockade,"[1]; post-stroke neurons, n=10",94.0±16.3%
"NCCCC(=O)O [GABA, gamma aminobutyric acid]",percent increase in Itonic,GABAARs,25.7±15.0%
"CCOC(=O)c1ncn2c1[C@@H]1CCCN1C(=O)c1cc(OC)ccc1-2 [L655,708]","behavioral recovery after stroke, dosing duration","mice after stroke [2]; 2-week and 6-week treatment, 6-week the most significant recovery",produces behavioral recovery
same,functional recovery after stroke in Gabrd−/− mice,"mice after stroke [2]; L655,708 given to GABAA receptor δ subunit null mutant mice",additive effect on functional recovery; also recorded: further functional recovery
same,functional recovery after stroke,"mice after stroke [2]; treatment from 3 days after stroke, young and aged animals, FIGS. 9A-9C",increase in functional recovery in both young and aged animals
same,"behavioral recovery after stroke, dose dependence","mice after stroke [2]; young adult and aged mice, low and high dose",promotes behavioral recovery after stroke in a dose-dependent manner
same,effect on Itonic,"α5GABAA receptor; 100 nM, representative recording (FIG. 2D)",reduced Itonic
same,effect on post-stroke Itonic,"α5GABAA receptor; post-stroke neurons, P<0.05 (FIG. 2F)","significantly decreased post-stroke Itonic, and notably reverted Itonic to near-control level"
same,hindlimb function in the grid-walking task,mice after stroke [3]; FIG. 6B,statistically significant improvement by the 42 day testing period
same,forelimb function in the grid-walking task,"mice after stroke [3]; approx. 200 or 400 μg/kg/day, FIG. 6A",enhanced forelimb use
same,gain of function post-stroke on the cylinder task,mice after stroke [4]; aged stroke animals,13-16%
same,forelimb function in the cylinder task,"mice after stroke [4]; subcutaneous osmotic minipump from 3 days after stroke, 7 day post-stroke test period, FIG. 6C",recovered right forelimb use very quickly
same,gain of function post-stroke on the cylinder task,mice after stroke [4]; young stroke animals,15-18%
